Results from patent US11738065B2, “Polypeptides and analogues thereof for use in the treatment of diabetes and bone disorders” (UNIVERSITY OF ULSTER, priority 2015, dated 2023).

What was measured:
BRIN-BD11 cells = experiment: In vitro insulin secretion from BRIN-BD11 cells; format: cell-based
Description: BRIN-BD11 cells were used to assess the insulin releasing activity of polypeptides as described by […] et al., 1996 (Diabetes. 1996 August; 45(8):1132-40). Cells were cultured in RPMI-1640 growth media supplemented with 10% (v/v) foetal bovine serum (FBS) and 1% (v/v) antibiotics (penicillin (100 U/ml), streptomycin ([…])), in 75 cm2 sterile tissue culture flasks (Greiner bio-one, UK) maintained at 37° C. and 5% CO2 in a LEEC incubator (Laboratory technical engineering, Nottingham, UK). BRIN-BD11 cells were then seeded at a density of 150,000 cells/well in 24-well plates (Nunc, Roskilde, Denmark) and allowed to attach overnight at 37° C.

DPP-4 = biological target: T1, DPP-4 (Sus scrofa, UniProt P22411); experiment: DPP-4 degradation / in vitro DPP-4 half-life; format: in vitro ADME, porcine; conditions: pig; 37° C., 50 mmol/L TEA-HCl pH 7.8, 5 mU purified porcine DPP-4, 0-12 h
T1 construct: purchased Sigma-Aldrich, Dorset, UK
T1 sequence (P22411 whole entry): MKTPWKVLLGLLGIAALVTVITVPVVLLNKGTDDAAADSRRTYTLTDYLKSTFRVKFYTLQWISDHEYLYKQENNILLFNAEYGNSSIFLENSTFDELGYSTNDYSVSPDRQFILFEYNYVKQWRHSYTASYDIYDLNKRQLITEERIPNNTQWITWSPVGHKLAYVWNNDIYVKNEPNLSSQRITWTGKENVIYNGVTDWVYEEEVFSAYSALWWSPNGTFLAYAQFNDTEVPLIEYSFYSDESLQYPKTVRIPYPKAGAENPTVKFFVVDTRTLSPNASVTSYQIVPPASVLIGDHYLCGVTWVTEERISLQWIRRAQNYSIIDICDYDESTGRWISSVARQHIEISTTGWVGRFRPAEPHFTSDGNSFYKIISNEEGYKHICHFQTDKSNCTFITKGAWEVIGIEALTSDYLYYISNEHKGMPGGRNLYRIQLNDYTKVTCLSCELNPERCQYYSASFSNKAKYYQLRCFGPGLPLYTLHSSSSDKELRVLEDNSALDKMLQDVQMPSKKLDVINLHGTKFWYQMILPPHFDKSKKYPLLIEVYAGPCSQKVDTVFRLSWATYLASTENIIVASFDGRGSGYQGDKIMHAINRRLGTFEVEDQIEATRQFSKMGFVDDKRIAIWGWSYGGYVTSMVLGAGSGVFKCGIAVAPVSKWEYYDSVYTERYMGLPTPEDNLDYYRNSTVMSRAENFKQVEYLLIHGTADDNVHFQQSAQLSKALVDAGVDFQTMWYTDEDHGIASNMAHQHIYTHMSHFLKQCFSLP
Description: (§1) For calculation of experimental molecular masses, peptide samples (1 μg) were mixed with α-cyano-4-hydroxycinnamic acid (1 μg) and applied to a Voyager-DE BioSpectrometry Workstation and mass-to-charge (m/z) ratio verses peak intensity recorded by MALDI-TOF mass spectrometry. […] Degradation profiles were obtained using rp-HPLC analysis and HPLC peak area data used to calculate percentage intact peptide remaining at each time point.
(§2) Briefly, polypeptides (20 μg) were incubated with 5 μl of purified DPP-4 (5 mU, Sigma-Aldrich, Dorset, UK) in 50 mM TEA-HCl (pH 7.8; final volume 450 μl) at 37° C. for 0, 1, 4 and 12 hours. Enzymatic reactions were terminated by the addition of 50 μl TFA/H2O (10% v/v, Sigma-Aldrich, Dorset, UK). Reaction products were then separated by HPLC and analysed using MALDI-TOF.

purified porcine DPP-4 = biological target: T2, purified porcine DPP-4 (Sus scrofa, UniProt P22411); experiment: DPP-4 degradation / in vitro DPP-4 half-life; format: in vitro ADME; conditions: incubated in the presence of DPP-4 for up to 12 hs
T2 construct: purchased Sigma-Aldrich, Dorset, UK
T2 sequence (P22411 whole entry): as above
Description: as §1, §2

high fat fed mice = experiment: Sub chronic 21 day twice daily study in high fat fed mice (energy intake, body weight, body composition, glucose, insulin); format: in vivo; conditions: 25 nmol/kg twice daily
Description: All animal experiments were carried out in accordance with the UK Animals (Scientific Procedures) Act 1986. […] On day 21, a non-fasted 24 h glucose profile was conducted. […] HOMA-IR was determined using the equation HOMA-IR=fasting glucose (mmol/l)×fasting insulin (mU/l)/22.5. […] Terminal analysis included measurement of total body fat and lean mass by DEXA scanning (Piximus Densitometer, Inside Outside Sales, Madison Wis., USA) and extraction of pancreatic tissue for analysis as detailed below. […] Briefly, pancreatic tissues were fixed in 4% parafolmaldehyde at 4° C. for 48 h. Pancreata were then embedded in paraffin wax and processed using an automated tissue processor (Leica TP1020, Leica Microsystems, Nussloch, Germany). […] Abcam, ab6995) or guinea-pig anti-glucagon antibody (PCA2/4, 1:400; raised in-house). […] The slides were viewed under a FITC (488 nm) or TRITC filter (594 nm) using a fluorescent microscope (Olympus system microscope, model BX51) and photographed using a DP70 camera adapter system. Islet parameters were analysed using Cell^F image analysis software (Olympus Soft Imaging Solutions, GmbH). Blood samples were collected from the cut tip on the tail vein of conscious mice into chilled fluoride/heparin glucose micro-centrifuge tubes (Sarstedt, Numbrecht, Germany) at the time points indicated in the Drawings. Blood glucose was measured directly using a hand-held Ascencia Contour blood glucose meter (Bayer Healthcare, Newbury, Berkshire, UK).

half-life (DPP-4): > 12 h
Intactness on incubation with DPP-4 (purified porcine DPP-4): remained fully intact
Structure (SMILES): CC[C@H](C)[C@H](NC(=O)[C@H](CO)NC(=O)[C@H](Cc1ccc(O)cc1)NC(=O)[C@H](CC(=O)O)NC(=O)[C@H](CO)NC(=O)[C@@H](NC(=O)[C@H](Cc1ccccc1)NC(=O)[C@@H](NC(=O)CNC(=O)[C@H](CCC(=O)O)NC(=O)[C@@H](C)NC(=O)[C@@H](N)Cc1ccc(O)cc1)[C@@H](C)O)[C@@H](C)CC)C(=O)N[C@@H](C)C(=O)N[C@@H](CCSC)C(=O)N[C@@H](CC(=O)O)C(=O)N[C@@H](CCCCN)C(=O)N[C@H](C(=O)N[C@@H](Cc1c[nH]cn1)C(=O)N[C@@H](CCC(N)=O)C(=O)N[C@@H](CCC(N)=O)C(=O)N[C@@H](CC(=O)O)C(=O)N[C@@H](Cc1ccccc1)C(=O)N[C@H](C(=O)N[C@@H](CC(N)=O)C(=O)N[C@@H](Cc1c[nH]c2ccccc12)C(=O)N[C@@H](CC(C)C)C(=O)N[C@@H](CC(C)C)C(=O)N[C@@H](C)C(=O)N[C@@H](CCC(N)=O)C(=O)N[C@@H](CCCCN)C(=O)NCC(=O)N[C@@H](CCCCN)C(=O)N[C@@H](CCCCN)C(=O)N[C@@H](CC(N)=O)C(=O)N[C@@H](CC(=O)O)C(=O)N[C@@H](Cc1c[nH]c2ccccc12)C(=O)N[C@@H](CCCCN)C(=O)N[C@@H](Cc1c[nH]cn1)C(=O)N[C@@H](CC(N)=O)C(=O)N[C@H](C(=O)N[C@H](C(=O)N[C@@H](CCC(N)=O)C(=O)O)[C@@H](C)O)[C@@H](C)CC)C(C)C)[C@@H](C)CC [(DAla2)GIP, TYR-(d)ALA-GLU-GLY-THR-PHE-ILE-SER-ASP-TYR-SER-ILE-ALA-MET-ASP-LYS-ILE-HIS-GLN-GLN-ASP-PHE-VAL-ASN-TRP-LEU-LEU-ALA-GLN-LYS-GLY-LYS-LYS-ASN-ASP-TRP-LYS-HIS-ASN-ILE-THR-GLN]
Insulin secretion from BRIN-BD11 cells (BRIN-BD11 cells; 10^−6 mol/l peptide, 20 min, vs 5.6 and 16.7 mmol/l glucose control): significantly (P<0.05 to P<0.001) stimulated insulin secretion
Insulin release from BRIN-BD11 cells (BRIN-BD11 cells; 10^−8 M peptide, vs 5.6 and 16.7 mmol/l glucose controls respectively): significant (P<0.001 and P<0.01; respectively) increases in insulin release
Non-fasting 24 h glucose profile on day 21 (high fat fed mice): also reduced, but not to the same extent
Circulating plasma insulin (high fat fed mice; 21 days): tendency for reduced plasma insulin levels
Energy intake or body weight (high fat fed mice; 21 days, vs high fat controls): no significant effect
Total body fat and lean mass (DXA) (high fat fed mice; after 21 days): unaltered
Non-fasting blood glucose vs lean control mice (high fat fed mice; from day 12 onwards): not significantly different from lean control mice
